Common to all, as to assay: NCI tumour cell line growth inhibition, 48 h
The test system of assay [1] is OVCAR-5 ovarian.
For assay [2], the system named is HOP-92 NSCLC.
Assay [3] concerns MDA-MB-435.
Assay [4] concerns UACC-257 melanoma.
Assay [5] relates to U251 CNS.
Assay [6] has as its system A549 NSCLC.
Assay [7] concerns T-47D breast.
In assay [8] the test system is SK-MEL-5 melanoma.
For assay [9], the system named is ACHN renal.
Assay [10] has as its system NCI-H23 lung.

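All cell lines were grown in 96-well plates and treated with compound for 48 hours. TGI: total growth inhibition.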 Where only a bound is given, the exact number is not on record here.

On to `CC(C)C(CC(=O)OCC(CO)OC(=O)CC(C(C)C)C(C)C)C(C)C` (stereo not given), for which the TGI in assay [1] is 26.1 µM; in assay [2] it was 16.9 µM; in assay [3], 28.1 µM; in [4] it was 31.2 µM; in assay [5], 30.9 µM; in assay [6] it was 24 µM. For the same compound, the TGI in assay [7] amounted to 31.7 µM; in assay [8] it was 24.7 µM; in assay [9], 24.3 µM; in assay [10] it was 30.4 µM.

On to `CS(=O)(=O)Nc1ccc2c(c1)N(S(C)(=O)=O)CC2CCl` (stereo not given), for which the TGI in assay [1], in assay [2], in assay [3], in [4], in assay [5] and in [6] was > 100 µM in each case. The TGI in [7], in assay [8], in [9] and in [10] was > 100 µM each time.

As for `C=C1C(OC2O[C@@H]3O[C@@]4(C)CC[C@H]5[C@H](C)CC[C@@H](C2=C)[C@@]35O4)O[C@@H]2O[C@@]3(C)CC[C@H]4[C@H](C)CC[C@@H]1[C@@]24O3` (stereo not given in full), the TGI in assay [1], in assay [2], in assay [3], in [4], in assay [5] and in [6] was > 50 µM each time. Also, the TGI in assay [7], in assay [8], in assay [9] and in assay [10] was > 50 µM each time.

With `Cc1cc(S(=O)(=O)Nc2n[nH]c(-c3ccccn3)n2)c(S)cc1Cl`, the TGI was 45.4 µM in [1]; 64.1 µM in assay [2]; 70.6 µM in assay [3]; > 100 µM in [4]; 67.3 µM in assay [5]; 41.9 µM in assay [6]. Also, the TGI in assay [7] was 56.2 µM; in assay [8], 24.3 µM; in [9], 54.1 µM.

In the case of `O=C(CCc1cc(O)cc(O)c1)NCCCNC(=O)CCc1cc(O)cc(O)c1`, the TGI in assay [1], in [2], in assay [3], in assay [4], in [5] and in [6] was > 100 µM each time. The TGI in [7], in assay [8], in [9] and in [10] was > 100 µM in each case.

On to `COc1cc(C(=O)Oc2ccc3c(c2)OCO3)cc(OC)c1OC`, for which the TGI in assay [1], in assay [2], in assay [3], in assay [4], in [5] and in assay [6] was > 100 µM throughout. Further, the TGI in [7], in [8], in assay [9] and in assay [10] was > 100 µM in each case.

With `CN(C)CC1CCC/C(=C\c2ccc(OC(=O)c3ccc(Cl)cc3)cc2)C1=O` (stereo not given), the TGI worked out at 5.95 µM in assay [1]; 4.75 µM in [2]; 4.01 µM in assay [3]; 16.7 µM in assay [4]; 3.08 µM in assay [5]; 7.26 µM in [6]. For the same compound, the TGI worked out at 2.21 µM in [7], 12.1 µM in [8], 8.44 µM in [9] and 3.5 µM in [10].

As for `Cc1ccc2c(c1)-c1c(C#N)c(N)nc(-c3ccc(Cl)cc3)c1CCS2(=O)=O`, the TGI was > 100 µM in assay [1]; > 100 µM in assay [2]; > 79.2 µM in assay [3]; > 100 µM in assay [4]; > 100 µM in assay [5]; > 100 µM in assay [6]. Further, the TGI was > 100 µM in [7], > 68 µM in [8], > 100 µM in assay [9] and > 100 µM in assay [10].

As to `COc1cc(CC(C)NC(C)=O)cc(OC)c1` (stereo not given), the TGI in assay [1], in assay [3], in assay [4], in assay [5], in [6] and in [7] was > 100 µM throughout. Besides, the TGI in [8], in [9] and in assay [10] was > 100 µM in each case.

As for `COc1cc(C(c2c(O)c3ccccc3oc2=O)c2c(O)c3ccccc3oc2=O)cc(Br)c1O`, the TGI in assay [1] stood at 39.3 µM; in assay [2], 26.2 µM; in assay [3], 51.6 µM; in [4], 33 µM; in [5], 31.9 µM; in [6], 35.6 µM. Moreover, the TGI in [7] was found to be 53.3 µM; in assay [8] it was 29.8 µM; in [9] it was 31.2 µM; in [10], 42.7 µM.

`C=C1OC(c2ccccc2NC)=NC12CCCCC2`: the TGI in assay [1], in assay [2], in assay [3], in assay [4], in [5] and in assay [6] was > 100 µM in each case. For the same compound, the TGI in assay [7], in [8], in assay [9] and in assay [10] was > 100 µM throughout.

With `O=c1nc2c(c(-c3ccc(Br)cc3)[nH]1)COC/C2=C\c1ccc(Br)cc1`, the TGI in assay [1], in [2], in assay [3], in assay [4], in [5] and in assay [7] was > 50 µM throughout. Further, the TGI in [8], in assay [9] and in assay [10] was > 50 µM in each case.

On to `S=C(N/N=C\C(=N/NC(=S)N1CCCCC1)c1ccccc1)N1CCCCC1`, for which the TGI in assay [1] was found to be 3.33 µM; in [2] it was 3.88 µM; in [3], 3.68 µM; in assay [4] it was 5.01 µM; in [5], 3.56 µM; in [6], 5.62 µM. Moreover, the TGI in assay [7] is 6.72 µM; in [8] it was 3.32 µM; in [9] it was 3.11 µM.

For the compound `c1cncc(CC2(c3cc4ccccc4[nH]3)OCCO2)c1`, the TGI in assay [2], in assay [3], in assay [4], in assay [5], in assay [6] and in assay [7] was > 100 µM throughout. Moreover, the TGI in assay [8], in assay [9] and in assay [10] was > 100 µM throughout.
